Laboratory results from article PMC9229894, “In Silico, In Vitro, and Pharmacokinetic Studies of UBMC-4, a Potential Novel Compound for Treating against Trypanosoma cruzi” (Pathogens, 2022).
Entries after “also recorded” stand apart in the source; their conditions may differ. Where two headings read alike, the source gives them in different places.

Key:
[1] = system: T. cruzi Tulahuen strain amastigotes; test: Trypanocidal activity in intracellular amastigotes (β-galactosidase, U937 macrophages); type: cell-based, Trypanosoma cruzi; conditions: Trypanosoma cruzi
Experimental: To obtain intracellular amastigotes, 2.5 × 10^6 U937 differentiated macrophage cells were infected with T. cruzi epimastigotes (Tulahuen strain producing β-galactosidase, 24 h of growing) in a 5:1 parasite/cell ratio. To calculate EC50, 100 μL of UBMC-4 were added at four serial dilutions ([…]) to each well, and benznidazole (bz) was added at an initial concentration of 20 µg/mL and 6 serial 2-fold dilutions were used to determine its EC50 as a control of the effectiveness of the experiment, in addition to the control of the viability of the parasites (cells without drug treatment), from the blank of the culture medium (medium without cells), in duplicate. The cells were incubated for 72 h at 37 °C with 5% of CO2. All medium was removed and 100 µL of substrate for β-galactosidase diluted in PBS (chlorophenol β-d-galactopyranoside-CPRG network; Sigma-Aldrich, St Louis, MO, USA, at 100 mM and 0.1% Nonidet P-40) was added to each well and incubated at 37 °C for 3 h. The amount of chlorophenol red released was read at 570 nm in a spectrophotometer (Varioskan TM). Infected cells were used as negative control while infected cells treated with benznidazole were used as a positive control (trypanocidal activity) for the assay. RPMI-1640 medium was used as a negative control. Non-specific absorbance was corrected by subtracting the OD of the blank sample. Determinations were done in triplicate in at least two independent experiments.
The trypanocidal activity was determined based on the percentage of decrease of amastigotes determined using equation, as follows: % reduction of infection = 100 − (O.D. of treated infected cells)/(O.D. of non-treated infected cells) × 100. The half maximal effective concentration (EC50) was calculated by the linear regression model Probit using Graphpad Prism software.

[2] = Cytotoxicity, MTT method, HepG2; type: cell-based; conditions: human, HepG2 cells, read-out: LC50 median lethal concentration HepG2
Experimental: (§1) Cytotoxicity of UBMC-4 was tested in HepG2, CaCo2, and huMDM cell lines according to the effect on cell growth determined by the MTT microenzimatic method, as described by others. Briefly, 2.0 × 10^4 U-937 and huMDM or 2.5 × 10^4 HepG2 and CaCo2 cells were dispensed in 200 µL into each well of a 96-well tissue culture plate containing the corresponding culture medium. Then, 100 µL/well of each compound at a concentration of […] were added and plates were incubated at 37 °C, 5% CO2. After 72 h of incubation, 20 μL of MTT (Sigma-Aldrich, St Louis, MO, USA) were added to each well and plates were incubated for 3 h at 37 °C, 5% CO2. […] The concentration of formazan was determined at 570 nm in a spectrophotometer (Varioskan Flash Multimode Reader, Thermo Scientific, Waltham, MA, USA). […] Cytotoxicity was determined according to the percentages of viability and cell growth inhibition obtained for each compound, bz, doxorubicin, or medium alone. Non-specific absorbance was corrected by subtracting the OD of the blank (culture medium). Percentages of mortality were calculated using equation, as follows: % mortality = 100 − [(O.D. of treated cells)/(O.D. of non-treated cells)] × 100. The half maximal effective concentration (EC50) was calculated by the linear regression model Probit using Graphpad Prism software.

[3] = Cytotoxicity, MTT method, huMDM; type: cell-based; conditions: human, monocyte-derived macrophages (huMDM), read-out: LC50 median lethal concentration huMDM
Experimental: as §1

T. cruzi epimastigotes [4] = test: Scanning and transmission electron microscopy of epimastigotes under nutritional stress; type: cell-based, Trypanosoma cruzi; conditions: 10 µM, nutritional stress (PBS) 6 h
Experimental: Epimastigotes untreated and treated with 10 uM of UBMC-4 under nutritional stress conditions (culture medium substitution for PBS for 6 h) were fixed for 2 h using 2.5% glutaraldehyde in cacodylate buffer 0.1 M. Parasites adhered for 10 min onto coverslips previously coated with 0.1% poly-L-lysin and subsequently washed with cacodylate buffer and dehydrated using 30%, 50%, 70%, and 90% (v/v) acetone for 5 min on each incubation. Subsequently, the cells were critically dried under CO2 and attached to the heel of the SEM instrument. Finally, samples were coated with a 20 nm-thick gold layer and analyzed in a Jeol JSM6010Plus-LA scanning electron microscope at 20 kV. For TEM, parasites were fixed for 2 h with glutaraldehyde and cacodylate buffer and then treated for 1 h with 1% OsO4 diluted in the same buffer. Parasites were dehydrated as above and then embedded in PolyBed-812 resin. Ultrathin sections were collected in copper grids and stained with 5% aqueous uranyl acetate and lead citrate. Samples were examined in a Jeol JEM-1400plus transmission electron microscope at 80 kV.

T. cruzi epimastigotes [5] = test: Intracellular ROS production in epimastigotes (H2DCFDA); type: cell-based, Trypanosoma cruzi; conditions: 10 µM, 24 h
Experimental: A total of 1.4 × 10^6 epimastigotes grown under normal and stress nutritional conditions were treated with 10 µM UBMC-4 for 24 h and the intracellular ROS concentration was determined by fluorometric testing with the diacetate 2′,7′-dichlorodihydrofluorescein (H2DCFDA) probe at 0.2 µg/mL. As controls, cell cultures both treated with no probe as well as only labeled with H2DCFDA were performed to determine baseline fluorescence. A ROS-production positive control was set up by challenging parasites with […] rotenone (a ROS inducer) for 1 h prior to labeling and reading. After the treatment, parasites were washed and resuspended in 100 µL of the H2DCFDA-containing solution, transferred to 96-well plates protected from the light, and then incubated for 1 h at 37 °C. The test readout was collected using an ELISA plate reader at an excitation wavelength of 495 nm and emission wavelength of 527 nm, respectively. Each treatment was performed in triplicate, and data were reported in arbitrary units of fluorescence.

[6] = Toxicity / tolerability in mice; type: in vivo
Solubility remark = type: physicochemical
T. cruzi trypomastigotes = test: Morphological changes of trypomastigotes incubated with UBMC-4 (data not shown); type: cell-based, Trypanosoma cruzi; conditions: 10 µM

With Oc1ccc(-c2nc(-c3ccc4sc5ccccc5c4c3)c(-c3ccccc3)[nH]2)cc1 [UBMC-4, 4-(4-dibenzo-[b,d]-thien-2-yl-5-phenyl-1H-imidazol-2-yl)phenol] the EC50 ([1]; TULAHUEN, U-937, 72 h, read-out: EC50 half maximal effective concentration for T. cruzi amastigotes) was 1.85 ± 1 µM, the EC50 ([1]; U-937, intracellular amastigotes, Tulahuen strain, same value in mass units, read-out: EC50 for T. cruzi amastigotes) was 0.774 µg/mL and the CC50 at 72 h [2] was over 40 µM. The CC50 at 72 h [3] was over 40 µM, the “morphology and ultra-structure changes (SEM, TEM)” value (T. cruzi epimastigotes [4]) was “progressive alterations such as flagellum inactivation, cell size reduction, nuclear structure alteration, condensation of chromatin towards the nuclear periphery, vacuole formation, mitochondrial swelling with kinetoplast integrity loss; also recorded: non-reversible morphological damage” and the “intracellular ROS concentration, treated vs untreated” value (T. cruzi epimastigotes [5]; normal nutritional conditions) was “No significant differences”. The “intracellular ROS concentration compared to untreated parasites” value (T. cruzi epimastigotes [5]; nutritional stress) was “twofold ROS concentration”, the “tolerability in preliminary toxicity study” value ([6]; 200 mg/kg administered once and 100 mg/kg every 24 h for 30 days) was “significant tolerability” and the acute toxicity ([6]; mice of the pharmacokinetic assay, 200 mg/kg oral single dose) was “did not exhibit acute toxicity”. For the same compound, the death of mice ([6]; mouse, in vivo, po, 200 mg/kg) was “did not cause death to any of the mice”, the solubility (Solubility remark) was “slight solubility problems” and the “morphological changes of trypomastigotes” value (T. cruzi trypomastigotes) was “much faster progressive morphological changes within the hour”.
